Assay [1] concerns Escherichia coli. Kind of assay: Drug-resistance experiment on pathogens isolated from the Department of Burns (NCCLS 1997). It counts as cell-based. To be noted: clinical isolates.
Assay [2] relates to aerogenes. The assay is described as above. To be noted: clinical isolates. It counts as cell-based, Enterobacter aerogenes.
The test system of assay [3] is Enterobacter cloacae. The assay is described as above. It counts as cell-based. To be noted: clinical isolates.
For assay [4], the system named is Pseudomonas aeruginosa. Described as above. It counts as cell-based. To be noted: clinical isolates.
Assay [5] deals with Acinetobacter. The description is as above. It counts as cell-based. To be noted: clinical isolates.
The test system of assay [6] is patients clinically diagnosed with impetigo. Kind of assay: Experiment of treatment of impetigo. To be noted: to the affected area 2 times a day, for 7 days. In kind it is in vivo, human. The procedure: 1652 patients clinically diagnosed with impetigo by the Department of Dermatology in the hospital were chosen and randomly divided into experimental group (n=1032) and control group (n=620). The experimental group was treated with the antimicrobial composition of the invention to the affected area, and the control group was treated with mupirocin, 2 times a day, for 7 days.

The subject of assay [7] is MSSA. Kind of assay: Drug-resistance experiment on pathogens isolated from the Department of Burns (NCCLS 1997). In kind it is cell-based, Staphylococcus aureus. To be noted: clinical isolates.

In the case of `CC1(C)S[C@@H]2[C@H](NC(=O)[C@H](N)c3ccccc3)C(=O)N2[C@H]1C(=O)O` [ampicillin], the “resistance rate of Escherichia coli” value in assay [1] worked out at 80.1%.

Regarding `Cc1nnc(SCC2=C(C(=O)O)N3C(=O)[C@@H](NC(=O)Cn4cnnn4)[C@H]3SC2)s1` [cefazolin], the “resistance rate of Escherichia coli” value in assay [1] came out at 40.0%. Further, in assay [2], the “resistance rate of aerogenes” value is 79.3%. Further, the “resistance rate of Enterobacter cloacae” value in assay [3] worked out at 89.3%. `CC(C)(O/N=C(\C(=O)N[C@@H]1C(=O)N2C(C(=O)[O-])=C(C[n+]3ccccc3)CS[C@H]12)c1csc(N)n1)C(=O)O` [ceftazidime]: the “resistance rate of Pseudomonas aeruginosa” value in assay [4] turned out to be 21.7%. In addition, the “resistance rate of Acinetobacter” value in assay [5] worked out at 21.2%.

For the compound `C/C(=C\C(=O)OCCCCCCCCC(=O)O)C[C@@H]1OC[C@H](C[C@@H]2O[C@H]2[C@@H](C)[C@H](C)O)[C@@H](O)[C@H]1O` [mupirocin], the effective rate in assay [6] is on record as 85%. For the compound `CCN1CCN(C(=O)N[C@@H](C(=O)N[C@@H]2C(=O)N3[C@@H]2SC(C)(C)[C@@H]3C(=O)O)c2ccccc2)C(=O)C1=O` [piperacillin], the “resistance rate of Acinetobacter” value in assay [5] is reported as 93.3%. On to gentamicin, for which, in assay [1], the “resistance rate of Escherichia coli” value was found to be 40.9%. For the same compound, in assay [4], the “resistance rate of Pseudomonas aeruginosa” value was found to be 35.3%. Moreover, in assay [5], the “resistance rate of Acinetobacter” value was 18.9%. In assay [2], the “resistance rate of aerogenes” value is recorded as 8.2%. Besides, the “resistance rate of Enterobacter cloacae” value in assay [3] is listed as 28.1%. Turning to penicillin, in assay [7], the “resistance rate of MSSA” value was 87.0%. Regarding piperazine amoxicillin, in assay [4], the “resistance rate of Pseudomonas aeruginosa” value stood at 34.1%.
